# What was measured:
# [1] = test system: MDA-MB-231 human breast cancer cell lines; experiment: Test A cell proliferation assay (BrdU incorporation); type: cell-based; conditions: MDA-MB-231 cells; for BrdU incorporation relative to vehicle control (1 unit): approximate
# Experimental: The cell line was propagated in D-MEM (Gibco 21885) supplemented with 10% Foetal calf serum. 15000 cells per well were seeded in 96 well plates and incubated overnight. The culture media was changed to serum-free D-MEM for 24 h. […] After 18 h incubation, BrdU was added according to manufacturer's recommendations. After 6 h incubation in the presence of BrdU, the culture media was removed and BrdU incorporation was measured using “Cell Proliferation ELISA, BrdU colorimetric” Roche (11647229001) according to manufacturer's recommendations.
# [2] = test system: MDA-MB-231 human breast cancer cells xenograft tumors; experiment: Test B in vivo mouse model Test 2, tumor weight; parameters: species or system Athymic BALB/cA nude mice; conditions: 8 mg/kg i.p. once daily for 27 days; vehicle control approximately 225 mg
# Experimental: 5 week old Athymic BALB/cA nude mice are delivered from Taconic (Denmark) and kept under barrier conditions for 1 week acclimatisation. At 6 weeks, 17 mice are injected subcutaneously on the flank with 1.8×10^6 MDA-MB-231 human breast cancer cells (LGC Promochem-ATCC) in a 50/50 v/v solution of phosphate buffered saline (PBS) (Gibco 10010-015, Invitrogen) Matrigel HC (BD Biosciences).
# After 11 days, palpable tumors are observed in 16 mice. 2 mice are sacrificed and the tumors dissected and examined. 2 groups of 7 mice each are treated once daily by intraperitoneal injections of 1-10 mg/kg bodyweight of test compound in 79% PBS/20% Solutol HS 15 (BASF)/1% DMSO or vehicle control respectively for 5-30 days. The mice are sacrificed by cervical dislocation and tumors are dissected.
# The above test procedure was followed, but 16 (rather than 17) mice were injected subcutaneously.
# 2 groups of 8 mice each were treated once daily by intraperitoneal injections of 8 mg/kg bodyweight of compound of Example 1 in 79% PBS/20% Solutol HS 15(BASF)/1% DMSO or vehicle control respectively for 27 days. Tumors were dissected and weighed at the end of the experiment.
# Ob/Ob mice [3] = experiment: Test C insulin measurement study in diabetic Ob/Ob mice, Method (II); type: in vivo; conditions: fed Ob/Ob mice, 30 mg/kg gavage twice daily for 18 days, vs vehicle
# Experimental: (§1) The aim of this study was to verify the efficacy of compound of Example 1 in the diabetic ob/ob mouse with regard to correction of the metabolic disorder hyperinsulinemia. Ob/ob mice were gavaged twice daily with compound of Example 1 and the effect of the compound on levels of plasma insulin were assessed and the results were compared to a concurrent control group gavaged with vehicle.
# The compound of Example 1 was obtained from Isosep AB, Uppsala, Sweden. A stock solution of 6 mg/ml was prepared by dissolving the compound in PBS, pH 7.4, 1% DMSO and 0.5% methyl cellulose.
# Male B6.V-Lep^ob/JBomTac (model number OB-M) mice were bred and delivered by Taconic. Animals were housed in Umea University animal facility in transparent polycarbonate cages, with wood chip bedding at a 12 h light/darkness cycle, a temperature of […], and a relative humidity of −50% throughout the accommodation and dosing periods. 5 animals were housed in each cage with free access to standard rodent chow (CRM(E)Rodent, Special Diets Services, Scanbur BK, Sweden) and tap water. […]
# (§2) In vivo potency and efficacy were determined in groups of 10 mice. […]
# Plasma insulin levels were determined according to the manufacturer's recommendations with a rat insulin ELISA kit using mouse insulin standard (Crystal Chem Inc).
# (§3) Data in the figures are presented as means±SEM. P values were calculated using the Student's t-test. […]
# Ob/Ob mice [4] = experiment: Test D blood glucose measurement study in diabetic Ob/Ob mice, Method (II); type: in vivo; conditions: 30 mg/kg gavage twice daily for 18 days, vs vehicle
# Experimental: as §1, with “hyperglycemia.” for “hyperinsulinemia.”, “blood glucose” for “plasma insulin”
# (§4) Male B6.V-Lep^ob/JBomTac (model number OB-M) mice were bred and delivered by Taconic. Animals were housed in Umea University animal facility in transparent polycarbonate cages, with wood chip bedding at a 12 h light/darkness cycle, a temperature of ˜21° C., and a relative humidity of ˜50% throughout the accommodation and dosing periods. 5 animals were housed in each cage with free access to standard rodent chow (CRM(E)Rodent, Special Diets Services, Scanbur BK, Sweden) and tap water. All animal experiments were approved by the Local Ethics Review Committee on Animal Experiments, Umea Region.
# as §2
# Blood glucose levels were measured by using a Glucometer Elite (Bayer) according to the manufacturer's recommendations.
# as §3
# Ob/Ob mice [5] = experiment: Test E plasma triglyceride study in diabetic Ob/Ob mice, Method (II); type: in vivo; conditions: fed Ob/Ob mice, 15 mg/kg gavage twice daily for 20 days, vs vehicle
# Experimental: The aim of this study was to verify the efficacy of compound of Example 1 in the diabetic ob/ob mouse with regard to correction of the metabolic disorder hypertriglyceridemia. Ob/ob mice were gavaged twice daily with compound of example 1 and the effect of the compound on levels of plasma triglycerides were assessed and the results were compared to a concurrent control group gavaged with vehicle.
# as §4, with “B6.V-Lep^ob/JUmeaTac” for “B6.V-Lep^ob/JBomTac”, “UMEA-M)” for “OB-M)”, “[…]” for “˜21°”, “−50%” for “˜50%”
# as §2
# Plasma triglycerides were determined with an enzymatic colorimetric assay (TRO100, Sigma-Aldrich) according to the manufacturer's recommendations.
# as §3
# AMPK = experiment: Test F activation of AMPK, Western blot of phospho-AMPKα Thr172 in HepG2 cells; type: cell-based, human; conditions: 10 μM
# Experimental: (§5) The compound of Example 1 was obtained from Isosep AB, Uppsala, Sweden. A stock solution of 10 mM was prepared by dissolving the compound in 100% DMSO.
# (§6) Human hepatoma HepG2 cells were purchased from American Type Culture Collection (ATCC, Manassas, USA). HepG2 cells were cultured in DMEM (Gibco 212885) containing 10% fetal bovine serum (Gibco 10500-064), 100 units/ml penicillin, 100 μg/ml streptomycin (Gibco 15140-122) and 1× non essential amino acids (Gibco 11140). The cells were incubated in a humidified atmosphere of 5% CO2 at 37° C. and passaged every 3 days by trypsinization. For experiments, HepG2 cells were incubated in complete medium with 10% fetal bovine serum in 60 or 100-mm-diameter dishes and grown to ˜70-80% confluence and subjected to assays after overnight serum depletion (16 h). After incubation in serum-free DMEM, the compound of Example 1 that was dissolved in DMSO was added to the medium.
# Cells were lysed in 100 mM TRIS pH 6.8, 2% w/v Sodium dodecyl sulfate (SDS), 10 mM NaF, 10 mM β-glycerophosphate, 1 mM Na Vanadate. Protein concentration of the lysates was measured by BCA protein assay kit (Pierce #23225). 25 μg protein was loaded in each well of a 4-12% bis/tris gel for AMPK detection (Criterion precast gel Bio-Rad #345-0124) or 5% Tris-HCl gel for acetyl-CoA carboxylase (ACC) detection (Criterion Precast gel Bio-Rad #345-0002) and run according to manufacturers recommendation. Gels were blotted onto nitrocellulose filters (Hybond-C extra Amersham #RPN203E). Filters were blocked in 20 mM TRIS pH 7.5, 137 mM NaCl, […] and 5% w/v fat free powdered milk for 30 min. Filters were incubated overnight in blocking solution with phospho-AMPKαThr172, AMPKα or phospho-ACC (Ser 79) (Cell signalling #2531, #2532 and #3661). Filters were washed in 20 mM TRIS pH 7.5, 137 mM NaCl, […] for 3×5 min. Filters were incubated in blocking solution with secondary antibody, peroxidase-conjugated Goat anti rabbit IgG (Jackson immunoResearch #111-035-003) in room temperature for 1 h. Filters were washed as above for 3×10 min. […]
# [6] = test system: acetyl-CoA carboxylase (ACC); experiment: Test F phosphorylation of ACC (Ser 79), Western blot in HepG2 cells; type: cell-based, human; conditions: 10 μM
# Experimental: as §5, §6
# Cells were lysed in 100 mM TRIS pH 6.8, 2% w/v Sodium dodecyl sulfate (SDS), 10 mM NaF, 10 mM β-glycerophosphate, 1 mM Na Vanadate. Protein concentration of the lysates was measured by BCA protein assay kit (Pierce #23225). […]
# [7] = test system: human primary mesangial cells; experiment: Test G amelioration of TGFβ dependent collagen IV secretion (ELISA); type: cell-based; conditions: 2.5 μM with TGFβ 0.5 ng/ml, 48 h, ELISA absorbance
# Experimental: Human primary mesangial cells (Lonza) were seeded at a density of 57 00 cells per well in a 24 well plate in DMEM (Gibco 212885) supplemented with Non essential amino acids (Gibco 11140) Penicillin/streptomycin (Gibco 15140-122) and 10% Foetal Calf Serum (FBS) (Gibco 10500-064)
# After 24 h incubation, media was changed to DMEM (Gibco 212885) supplemented with Non essential amino acids (Gibco 11140) Penicillin/streptomycin (Gibco 15140-122) and 0.5% Foetal Calf Serum (FBS)(Gibco 10500-064) as the experimental media. After 24 h incubation, media was changed to experimental media containing either vehicle or […] (0.5 ng/ml), compound of Example 1 (2.5 μM), or TGFβ (0.5 ng/ml) and compound of Example 1 (2.5 μM) in combination.
# After 48 h of exposure the supernatant from each well was collected and subjected to ELISA analysis.
# Using Nunc Maxisorp microtiter plates, duplicate samples of conditioned cell culture medium (diluted 1:10) was used for coating ([…], 18 h, +4° C.). […] After 3× washing in ELISA buffer, reactions were visualised using 100 μl/well TMB liquid substrate system for ELISA (Sigma) After maximum 30 min reactions were stopped by addition of 25 μl 1 M H2SO4 and immediately analysed at 450 nm using a Multiskan EX plate reader (Thermo Labsystems).
structure (smiles),measurement,setting,value
"O=C1N=C(NS(=O)(=O)c2ccc(Cl)c(Cl)c2)SC1Cc1cccc(C(F)(F)F)c1 (centres unmarked) [Example 1, 5-(3-(Trifluoromethyl)benzyl)-2-(3,4-dichlorophenyl)sulfonyliminothiazolidin-4-one]",BrdU incorporation relative to vehicle control (1 unit),[1]; 0.5 μM,~0.95 units
same,BrdU incorporation relative to vehicle control (1 unit),[1]; 1 μM,~1 units
same,BrdU incorporation relative to vehicle control (1 unit),[1]; 5 μM,~0.5 units
same,BrdU incorporation relative to vehicle control (1 unit),[1]; 10 μM,~0.15 units
same,Effect on proliferation rate as measured by BrdU incorporation,[1],dose dependent reduction in proliferation
same,Tumor weight at the end of the experiment,[2],about 130 mg
same,Effect on hyperinsulinemia (plasma insulin),Ob/Ob mice [3],attenuates hyperinsulinemia
same,Effect on fed blood glucose levels,Ob/Ob mice [4],attenuated
same,Effect on plasma triglycerides,Ob/Ob mice [5],attenuated
same,Effect on AMPK phosphorylation,AMPK,stimulates AMPK phosphorylation
same,Time for AMPK phosphorylation to rise to near maximal levels,AMPK,≤ 1 h
same,Time for which AMPK phosphorylation was sustained,AMPK,24 h
same,Effect on phosphorylation of ACC,[6],enhanced phosphorylation of ACC
same,Effect on TGFβ dependent collagen IV secretion,[7],ameliorate the TGFβ dependent collagen IV secretion
